Converted amounts (≈) assume the structure as drawn. “And” between values parts separate entries of the source, which are not always exact repeats. Equal entries are not always repeated. Where two headings read alike, the source gives them in different places.

The values that follow come from patent US10899739B2, “Macrophage migration inhibitory factor inhibitors, and methods of making and using same” (YALE UNIVERSITY, priority 2017, dated 2021).

The conditions of data set [1]: shake-flask; data for previously reported analogs of 1 and 2; cited from earlier work.
Data set [2] addresses T1, MIF (Homo sapiens, UniProt P14174).
T1 construct: made in house
T1 sequence (P14174 2-115 limits assumed): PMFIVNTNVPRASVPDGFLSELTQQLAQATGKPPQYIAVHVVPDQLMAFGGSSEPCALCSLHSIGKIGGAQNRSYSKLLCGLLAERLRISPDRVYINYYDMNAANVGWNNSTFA
Kind of data set: MIF tautomerase inhibition assay with 4-hydroxyphenylpyruvic acid (HPP) as substrate. Type of data set: biochemical.

Data set [3] addresses T1, MIF. Kind of data set: fluorescence polarization binding assay. A general note: Fluorescence polarisation rises when a labelled molecule tumbles more slowly, as on binding a larger partner.
The nature of data set [4]: aqueous solubility, shake-flask procedure. Type of data set: physicochemical. The settings on record: aqueous buffer, thermodynamic from solid, Britton-Robinson buffer pH 6.5, read-out: Aqueous Solubility S. The protocol:
For the assaying, inhibition constants Ki were determined as before using 4-hydroxyphenylpyruvic acid (HPP) as the substrate (Cisneros, et al., 2016, Bioorg. Med. Chem. Lett. 26:2764-2767). Inhibitory activity is monitored by measuring formation of the borate complex of the enol product at 305 nm using a Tecan Infinite F500 plate reader. Binding constants Kd were also obtained for the new compounds using a fluorescence polarization assay (Cisneros, et al., 2016, J. Am. Chem. Soc. 138:8630-8638). […] Saturated solutions in Britton-Robinson buffer (pH 6.5) are filtered (Acrodisc syringe, 0.2 μm pore) and analyzed by UV-vis spectroscopy (Agilent 8453).

As for `NCCOc1ccc2nc(-c3cn(-c4ccc(O)cc4)nn3)ccc2c1` [Compound 1c], in data set [1], the “Aqueous Solubility S” value is 3.7 µg/mL. For the compound `O=C(O)COc1ccc2nc(-c3cn(-c4ccc(O)cc4)nn3)ccc2c1` [Compound 1f], the “Aqueous Solubility S” value in data set [1] was 365 µg/mL.

On to `OCCOc1ccc2nc(-c3cn(-c4ccc(O)cc4)nn3)ccc2c1` [Compound 1b], for which, in data set [1], the “Aqueous Solubility S” value was 2.6 µg/mL. On to “methyl 3-(4-hydroxyphenyl)-4,5-dihydroisoxazole-5-carboxylate [ISO-1]”, for which the Ki was 30 µM and 30.1 µM at MIF [2] (HPP substrate, new naphthyridinones and ISO-1, read-out: Experimental Inhibition Constants Ki); 21 to 39 µM on MIF [2] (spread of nine measurements, read-out: Ki, results of repeated measurements). Besides, the Kd on MIF [3] (fluorescence polarization, new compounds and ISO-1, read-out: Binding Constants Kd) was 23 µM and 23.1 µM; on MIF [3] (spread of four measurements, read-out: Kd, results of repeated measurements), 20 to 30 µM. `O=C(O)Cn1ccc2ccc(-c3cn(-c4ccc(O)c(F)c4)nn3)nc2c1=O` [Compound 4b, 2-(2-(1-(3-fluoro-4-hydroxyphenyl)-1H-1,2,3-triazol-4-yl)-8-oxo-1,7-naphthyridin-7(8H)-yl)acetic acid]: the solubility in data set [4] was found to be 288 µg/mL (≈ 755 µM). `O=C(O)COc1ccc2nc(-c3cn(-c4ccc(O)c(F)c4)nn3)ccc2c1` [Compound 2c]: the “Aqueous Solubility S” value in data set [1] was 37.0 µg/mL.

For orientation: Ki means the equilibrium dissociation constant of an inhibitor or competing ligand from its target. Usually Kd stands for the concentration at which binding is half-saturated. Broadly, the solubility is how much of the substance goes into solution per volume.
